Values quoted from earlier work, collected in patent publication US20200085789A1, “USE OF A PROTEASOME INHIBITOR FOR THE TREATMENT OF CENTRAL NERVOUS SYSTEM (CNS) CANCERS” (Celgene International II Sàrl, priority 2017, published 2020).

Details: in vivo; cited from earlier work

CC(C)C[C@H](NC(=O)[C@H](Cc1ccccc1)NC(=O)c1cnccn1)B(O)O [BTZ, bortezomib, reference compound]
crossing of the blood brain barrier: does not cross the blood brain barrier
